Laboratory results from article PMC6962393, “Targeting the tumor vasculature with engineered cystine-knot miniproteins” (Nature Communications, 2020).
Where no end group is shown, it is not given here. The star is where a group is joined. Biotin = O=C1N[C@H]2[C@H](CS[C@H]2CCCCC(=O)*)N1

Legend:
[1] = system: EDB in U-87 MG glioblastoma xenograft tumor sections; test: Immunofluorescence staining of U-87 MG tumor tissue sections; design: species or system human U-87 MG grown as mouse xenograft; settings: biotinylated miniprotein tetramerized with Cy3-labeled streptavidin, 6 µm sections
Method: Cryopreserved tumor pieces were cut in 6-µm-thick sections, fixed in ice cold acetone for 5 min, and air-dried. Slides were then blocked in PBS with 3% BSA at RT for 5 min. For staining of EDB, 1 µg of the respective biotinylated cystine-knot miniprotein was incubated with 2.9 µg streptavidin-Cy3 conjugate (Rockland Immunochemicals) at RT for 30 min. The pre-formed complex or 0.1 µg AF680-(MC-FN-010)3 and anti-mouse CD31 antibody (RB-10333-P1, Thermo Fisher) diluted 1:100 in PBS with 1% BSA was then added to the tumor sections and incubated for 30 min at 37 °C. Afterwards, slides were washed three times with PBS containing 1% BSA. CD31 staining of sections treated with pre-formed complex was performed with a rat anti-mouse CD31 IgG antibody (102416; BioLegend) diluted 1:100 in PBS with 1% BSA for 30 min at 37 °C and detected with a secondary […] IgG-Cy3 antibody (111-165-003; Jackson ImmunoResearch) diluted 1:400 in PBS with 1% BSA for 30 min at 37 °C. After three washing steps in PBS, cell nuclei were stained with Höchst 33342 (Thermo Fisher Scientific) diluted 1:5000 in PBS for 30 min at RT. Slides were washed again as described above and covered with coverslips in a thin layer of mounting medium (Dako). Images were captured with a Zeiss Apotome microscope (Carl Zeiss) and analyzed with ZEN software (Carl Zeiss).

[2] = biological target: T1, biotinylated human FN-67B89 (Homo sapiens, UniProt P02751); test: Surface plasmon resonance, binding kinetics to FN-67B89; settings: for binding of tag-free variant to FN-67B89 by SPR: Fig 2d, multi-cycle kinetics, 50 to 1000 nM
T1 construct: flanked by its surrounding type III domains (FN-67B89, amino acid G1080-E1455); made in house; host or cells: E. coli BL21 (DE3), pET-21a
T1 sequence (P02751 1080-1546): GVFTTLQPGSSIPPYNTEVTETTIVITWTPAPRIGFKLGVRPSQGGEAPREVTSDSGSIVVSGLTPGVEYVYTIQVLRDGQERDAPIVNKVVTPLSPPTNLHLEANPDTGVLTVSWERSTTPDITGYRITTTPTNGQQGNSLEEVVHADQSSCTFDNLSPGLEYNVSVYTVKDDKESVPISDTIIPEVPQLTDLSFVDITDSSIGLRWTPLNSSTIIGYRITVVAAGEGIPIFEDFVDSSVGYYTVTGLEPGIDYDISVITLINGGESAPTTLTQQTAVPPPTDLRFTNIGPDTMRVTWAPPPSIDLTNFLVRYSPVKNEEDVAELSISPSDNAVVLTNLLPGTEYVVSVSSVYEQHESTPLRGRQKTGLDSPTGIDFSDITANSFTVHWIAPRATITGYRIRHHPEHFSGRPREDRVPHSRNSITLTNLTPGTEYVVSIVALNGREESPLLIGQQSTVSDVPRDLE
Method: Binding kinetics of monomeric and trimeric cystine-knot miniprotein ligands to its target protein was determined using a Biacore T-100 device (GE Healthcare Life Science) with PBS-T as running buffer. For this, the biotinylated FN-67B89 protein (200–300 µg/mL) was captured by binding to a flow cell of an SA sensor chip (GE Healthcare Life Science). To analyze monomeric ligands, an immobilized target density of maximum 750 response units (RU) was applied and for trimeric variants a RU of maximum 400 was aimed for. Binding analysis of monomeric ligands was performed using a multi-cycle kinetic method with concentrations ranging from 50 to 4000 nM. A cycle started with an association period of 90 s, followed by a dissociation period of 420 s and a final regeneration step. Kinetic measurement was conducted applying a flow rate of 20 µL/min. Trimeric variants were analyzed under the same association and dissociation conditions, but using the single-cycle kinetic measurement mode in a constant flow of […]. In this case the analyte concentration was between 1.25 and 10 nM. Binding kinetics and steady-state analysis were calculated using a global kinetic fit model (1:1 Langmuir, Biacore T-100 Evaluation Software; GE Healthcare Life Science).

FN-B = test: Hit identification ranking score (FN-B to BSA ELISA signal normalized to expression rate); type: binding, human; settings: signal (FN-B) to noise (BSA) ELISA ratio normalized to expression rate of Trx-cystine-knot miniprotein; MCopt 1.0 library
Method: Single colonies were picked, sequenced, and transferred to a 96-well plate for small-scale expression in 1 mL autoinduction medium (MagicMedia™; Thermo Fisher Scientific). Protein production was conducted overnight at 30 °C and 220 rpm. Cells were harvested by centrifugation at 3000 × g for 15 min, lysed via incubation in buffer (20 mM Tris, 2 mM MgCl2, 20 mM NaCl, pH 8) containing 0.1 mg/mL lysozyme (Merck Millipore) and 5 U/mL benzonase (Merck Millipore) combined with a freeze–thaw cycle, and heated for 10 min at 80 °C. After a final centrifugation (3000 × g, 15 min, 4 °C) to remove cell debris, the supernatant was collected for E-PAGE™ and binding analysis. E-PAGE^TM (Life Technologies) was used as a high throughput gel system to simultaneously analyze 96-probes in parallel for a quantification of produced and heat-purified proteins. E-PAGE^TM analysis was performed according to the manufacturer's instructions. ELISA was used as a technique to analyze protein–protein interactions. […] The wells were washed three times with PBS-T (1× PBS with 0.1% (w/v) Tween-20), blocked with 1× Casein buffer (Sigma Aldrich) diluted in PBS for 2 h at RT, and washed again as described. 20 µL of supernatant containing the respective heat-purified fusion protein were added to 80 µL PBS-T or 200 nM of MC-Myc-010 fusion protein (wells with anti-c-myc antibody) diluted in PBS-T, applied to the cavities, and incubated for 1 h at 4 °C. After three times of washing with PBS-T, binding of the respective variant was detected with a horseradish peroxidase (HRP)-conjugated anti-S-tag antibody (ab18589 or ab19324; Abcam) 1:2000 diluted in PBS. Enzymatic reaction was measured with TMB as a chromogenic substrate and stopped with 0.2 M HCl after approximately 5 min. The measurement of absorbance at 450 nm was performed using an Infinite M200 PRO Microplate Reader (Tecan). […]
Ranking scores were calculated on the basis of the signal (FN -B) to noise (BSA)
ratios determined via ELISA and were further normalized to the expression rate of Trx -cystine-knot […]

[3] = system: FN-6789 (type III domains 6–9 without EDB); test: ELISA binding of Trx-cystine-knot miniproteins to off-target control FN-6789; design: species or system human; settings: FN-6789, streptavidin, milk powder, BSA
[4] = SPR Biacore T-100, biotinylated human FN-67B89 on streptavidin chip, PBS-T, 1:1 Langmuir fit

MC-FN-0115-bio: biotinylated MC-FN-0115, tetramerized with Cy3-labeled streptavidin for staining (Biotin-PMCTQRANRIAACRRDSDCTGACICRGNGYCG; also: cystine-knot disulfides, pairing not given here)
staining of U-87 MG tumor sections [1]: did not stain

PMCTQRKNRIRLCRRDSDCTGACICRGNGYCG (also: bicyclic or more (positions not given here)) [MC-FN-010]
binding of tag-free variant to FN-67B89 by SPR [2]: detectable binding activity | affinity / binding constant towards biotinylated FN-67B89 (range in words) ([2]; SPR): single-digit micromolar range | Kd [2, 4]: 1580 nM | Koff [2, 4]: 0.07831 s⁻¹ | Kon ([2]; SPR Biacore T-100, biotinylated human FN-67B89 on streptavidin chip, PBS-T, 1:1 Langmuir fit, monomers multi-cycle, trimers single-cycle): 49500 M⁻¹ s⁻¹ | Ranking value (FN-B): 2.6 to 0.6

WKCQPTNGYRIRCRRDSDCPGDCICRGNGYCG (also: bicyclic or more (positions not given here)) [MC-FN-030, cystine-knot miniprotein clone from MCopt 1.0 library]
binding of tag-free variant to FN-67B89 by SPR [2]: no detectable binding | Ranking value (FN-B): 2.7 to 1.6

WTCTKKYPNTISCRRDSDCRVTCICRGNGYCG (also: bicyclic or more (positions not given here)) [MC-FN-020, cystine-knot miniprotein clone from MCopt 1.0 library, without R-I/V-R-(L) motif]
binding to off-target and control proteins [3]: strong binding | Ranking value (FN-B): 3.7 to 1.7
